# Laboratory results published in patent publication US20200246317A1, “METHODS OF TREATING DIABETIC NEUROPATHY WITH A THIAZOLINE ANTI-HYPERALGESIC AGENT” (CERSCI THERAPEUTICS, INC., priority 2019, published 2020).
# Where a name gives a salt, the structure may show the parent alone.
# System: streptozotocin (STZ)-induced diabetic rats
# Experiment: Mechanical thresholds in streptozotocin (STZ)-induced diabetic rats
# Type: in vivo, rat
# Experimental: Experiments were conducted to determine the effect of Compound 1 in streptozotocin (STZ)-induced diabetic rats. In the first experiment, after obtaining mechanical threshold baselines, STZ (50 mg/kg IV) was administered (Day −7). Two days later, blood glucose levels were measured and animals that were hyperglycemic (>250 mg/dL) continued in the study. On Day 0 the baseline for mechanical thresholds prior to dosing with test articles was established for the rats. Compound 1 (10, 30, and 100 mg/kg PO), gabapentin (100 mg/kg PO) or vehicle was then administered daily for 5 days. On Day 0 mechanical thresholds were obtained at 1, 3, and 6 h post-dose. On Day 1 mechanical thresholds were measured immediately prior to dosing and then 3 h post-dose. The same regimen was followed on Day 3.
# In a subsequent study, the same STZ paradigm was followed. However, in addition to the 100 mg/kg Compound 1 group, two additional cohorts received the Compound 1 100 mg/kg dose split into two or three doses per day with 50 mg/kg BID and 33 mg/kg TID. In addition to the gabapentin (100 mg/kg PO) group, a separate cohort received duloxetine (30 mg/kg PO). Additionally, in this study mechanical threshold testing was implemented every day immediately prior to dosing and 2 h post-dose for 7 days.
smiles,measurement,setting,value
"CC1(C)SC(Nc2ccccc2O)=N[C@@H]1C(=O)O [Compound 1, (R)-2-(2-hydroxyphenylamino)-5,5-dimethyl-4,5-dihydrothiazole-4-carboxylic acid mono-hydrochloride]",reversal of allodynia (mechanical threshold relative to vehicle),"first experiment, 10, 30, 100 mg/kg PO daily, subsequent days",statistically-significant
same,reversal of allodynia (mechanical threshold),"first experiment, Compound 1 10, 30, 100 mg/kg PO, gabapentin 100 mg/kg PO daily, Day 0 (gabapentin: 1 h post-dose on Day 0 and all time points thereafter)",non-significant reversal of allodynia
same,effect on mechanical threshold compared with gabapentin,"first experiment, subsequent days, gabapentin 100 mg/kg PO",comparable to gabapentin
same,effect on allodynia,"rat model of diabetic neuropathy, streptozotocin-induced (overview)",alleviates allodynia
same,difference between dosing regimens,"subsequent study, 100 mg/kg QD vs 50 mg/kg BID vs 33 mg/kg TID",no clear difference
same,reversal of allodynia (mechanical threshold),"subsequent study, 7 days, Compound 1 100 mg/kg QD, 50 mg/kg BID, 33 mg/kg TID, gabapentin 100 mg/kg PO, duloxetine 30 mg/kg PO",reversed allodynia upon continued daily dosing reaching statistical significance from Day 1 and beyond
